Tests used:
Assay type in all cases: in vivo
Echinochloa crusgalli [1] = experiment: Greenhouse herbicidal activity assay, post-emergence; conditions: Post-emergence test, rate 150 g a.i./hm^2, grade by fresh weight inhibition rate
Outline: (§1)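 Foliar spray at 3-6 leaves; pot-grown in nutrient soil in growth chamber; air-dried post-spray. Read-out at 14-21 d: fresh weight inhibition, graded A (≥80% to 100%) down to E (<20%); NT = not tested.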

Cyperus iria = experiment: as above; conditions: Post-emergence test, rate 150 g a.i./hm^2, grade by fresh weight inhibition rate
Outline: as §1

Leptochloa chinensis [2] = experiment: as above; conditions: Post-emergence test, rate 150 g a.i./hm^2, grade by fresh weight inhibition rate
Outline: as §1

Digitaria sanguinalis = experiment: as above; conditions: Post-emergence test, rate 150 g a.i./hm^2, grade by fresh weight inhibition rate
Outline: as §1

Eclipta prostrata = experiment: as above; conditions: Post-emergence test, rate 150 g a.i./hm^2, grade by fresh weight inhibition rate
Outline: as §1

[3] = test system: Oryza sativa subsp. indica; experiment: Greenhouse herbicidal activity and crop safety comparison (Test Example 2)
Outline: (§2)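 Fresh weight inhibition, banded into grades A to E (E <20%), was rated 14-21 days after foliar spraying of 3-6 leaf plants, or 14-30 days after a soil spray applied 24 h post-sowing.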

Echinochloa crusgalli [4] = experiment: as above
Outline: as §2

[5] = test system: Oryza sativa subsp. japonica; experiment: as above
Outline: as §2

Leptochloa chinensis [6] = experiment: as above
Outline: as §2

Structure (SMILES)	Control efficacy grade, Echinochloa crusgalli (Echinochloa crusgalli [1])	Control efficacy grade, Cyperus iria (Cyperus iria)	Control efficacy grade, Leptochloa chinensis (Leptochloa chinensis [2])	Control efficacy grade, Digitaria sanguinalis (Digitaria sanguinalis)	Control efficacy grade, Eclipta prostrata (Eclipta prostrata)	Oryza sativa subsp. indica, grading of fresh weight inhibition rate (crop safety) ([3]; Rate 150 g/ha)	Echinochloa crusgalli, control efficacy grading (fresh weight inhibition rate) (Echinochloa crusgalli [4]; Rate 150 g/ha)	Oryza sativa subsp. japonica, grading of fresh weight inhibition rate (crop safety) ([5]; Rate 150 g/ha)	Leptochloa chinensis, control efficacy grading (fresh weight inhibition rate) (Leptochloa chinensis [6]; Rate 150 g/ha)	pest or weed control at 150 g/ha (Echinochloa crusgalli [1]; Echinochloa crus-galli, read-out: Control efficacy grade, Echinochloa crusgalli) [%]	pest or weed control at 150 g/ha (Cyperus iria; Cyperus iria, read-out: Control efficacy grade, Cyperus iria) [%]	pest or weed control at 150 g/ha (Leptochloa chinensis [2]; Dinebra chinensis, read-out: Control efficacy grade, Leptochloa chinensis) [%]	pest or weed control at 150 g/ha (Digitaria sanguinalis; Digitaria sanguinalis, read-out: Control efficacy grade, Digitaria sanguinalis) [%]	pest or weed control at 150 g/ha (Eclipta prostrata; Eclipta prostrata, read-out: Control efficacy grade, Eclipta prostrata) [%]	inhibition at 150 g/ha (Echinochloa crusgalli [4]; Echinochloa crus-galli, Rate 150 g/ha, read-out: Echinochloa crusgalli, control efficacy grading (fresh weight inhibition rate)) [%]	inhibition at 150 g/ha (Leptochloa chinensis [6]; Dinebra chinensis, Rate 150 g/ha, read-out: Leptochloa chinensis, control efficacy grading (fresh weight inhibition rate)) [%]	Oryza sativa subsp. indica, grading of fresh weight inhibition rate (crop safety) ([3]; Rate 250 g/ha)	Echinochloa crusgalli, control efficacy grading (fresh weight inhibition rate) (Echinochloa crusgalli [4]; Rate 250 g/ha)	Oryza sativa subsp. japonica, grading of fresh weight inhibition rate (crop safety) ([5]; Rate 250 g/ha)	Leptochloa chinensis, control efficacy grading (fresh weight inhibition rate) (Leptochloa chinensis [6]; Rate 250 g/ha)
CCc1nnc(NC(=O)c2ccc(S(C)(=O)=O)c(S(=O)(=O)C(C)CC)c2Cl)o1 (racemic) [Compound 3-406]	A (Fresh weight inhibition rate≥80% to 100%)	A (Fresh weight inhibition rate≥80% to 100%)	A (Fresh weight inhibition rate≥80% to 100%)	A (Fresh weight inhibition rate≥80% to 100%)	A (Fresh weight inhibition rate≥80% to 100%)	E (Fresh weight inhibition rate<20%)	A (Fresh weight inhibition rate≥80% to 100%)	E (Fresh weight inhibition rate<20%)	A (Fresh weight inhibition rate≥80% to 100%)											
CCC(C)S(=O)(=O)c1c(S(C)(=O)=O)ccc(C(=O)Nc2nnc(C(C)C)o2)c1Cl (racemic) [Compound 3-522]	A (Fresh weight inhibition rate≥80% to 100%)	A (Fresh weight inhibition rate≥80% to 100%)	A (Fresh weight inhibition rate≥80% to 100%)	C (Fresh weight inhibition rate≥40% to <60%)	A (Fresh weight inhibition rate≥80% to 100%)	E (Fresh weight inhibition rate<20%)	A (Fresh weight inhibition rate≥80% to 100%)	E (Fresh weight inhibition rate<20%)	A (Fresh weight inhibition rate≥80% to 100%)											
CCC(C)S(=O)(=O)c1c(S(C)(=O)=O)ccc(C(=O)Nc2nnc(C3CC3)o2)c1Cl (racemic) [Compound 3-638]	A (Fresh weight inhibition rate≥80% to 100%)	A (Fresh weight inhibition rate≥80% to 100%)	A (Fresh weight inhibition rate≥80% to 100%)	B (Fresh weight inhibition rate≥260% to <80%)	A (Fresh weight inhibition rate≥80% to 100%)	E (Fresh weight inhibition rate<20%)	A (Fresh weight inhibition rate≥80% to 100%)	E (Fresh weight inhibition rate<20%)	A (Fresh weight inhibition rate≥80% to 100%)											
CCCS(=O)(=O)c1c(S(C)(=O)=O)ccc(C(=O)Nc2nnc(C)o2)c1Cl [Compound 3-5]	A (Fresh weight inhibition rate≥80% to 100%)	A (Fresh weight inhibition rate≥80% to 100%)	A (Fresh weight inhibition rate≥80% to 100%)	A (Fresh weight inhibition rate≥80% to 100%)	A (Fresh weight inhibition rate≥80% to 100%)	E (Fresh weight inhibition rate<20%)	A (Fresh weight inhibition rate≥80% to 100%)	E (Fresh weight inhibition rate<20%)	A (Fresh weight inhibition rate≥80% to 100%)											
Cc1nnc(NC(=O)c2ccc(S(C)(=O)=O)c(S(=O)(=O)C(C)C)c2Cl)o1 [Compound 3-10, 2-chloro-3-(isopropylsulfonyl)-N-(5-methyl-1,3,4-oxadiazol-2-yl)-4-(methylsulfonyl)benzamide]						E (Fresh weight inhibition rate<20%)		E (Fresh weight inhibition rate<20%)		80 to 100	80 to 100	80 to 100	80 to 100	80 to 100	80 to 100	80 to 100				
CCCCS(=O)(=O)c1c(S(C)(=O)=O)ccc(C(=O)Nc2nnc(C)o2)c1Cl [Compound 3-15]	B (Fresh weight inhibition rate≥260% to <80%)	B (Fresh weight inhibition rate≥260% to <80%)	B (Fresh weight inhibition rate≥260% to <80%)	B (Fresh weight inhibition rate≥260% to <80%)	A (Fresh weight inhibition rate≥80% to 100%)												E (Fresh weight inhibition rate<20%)	A (Fresh weight inhibition rate≥80% to 100%)	E (Fresh weight inhibition rate<20%)	A (Fresh weight inhibition rate≥80% to 100%)
Cc1nnc(NC(=O)c2ccc(S(C)(=O)=O)c(S(=O)(=O)CC(C)C)c2Cl)o1 [Compound 3-31]	B (Fresh weight inhibition rate≥260% to <80%)	A (Fresh weight inhibition rate≥80% to 100%)	A (Fresh weight inhibition rate≥80% to 100%)	A (Fresh weight inhibition rate≥80% to 100%)	A (Fresh weight inhibition rate≥80% to 100%)												E (Fresh weight inhibition rate<20%)	A (Fresh weight inhibition rate≥80% to 100%)	E (Fresh weight inhibition rate<20%)	A (Fresh weight inhibition rate≥80% to 100%)
Cc1nnc(NC(=O)c2ccc(S(C)(=O)=O)c(S(=O)(=O)CC3CC3)c2Cl)o1 [Compound 3-41]	A (Fresh weight inhibition rate≥80% to 100%)	A (Fresh weight inhibition rate≥80% to 100%)	A (Fresh weight inhibition rate≥80% to 100%)	A (Fresh weight inhibition rate≥80% to 100%)	A (Fresh weight inhibition rate≥80% to 100%)	E (Fresh weight inhibition rate<20%)	A (Fresh weight inhibition rate≥80% to 100%)	E (Fresh weight inhibition rate<20%)	A (Fresh weight inhibition rate≥80% to 100%)											
Cc1nnc(NC(=O)c2ccc(S(C)(=O)=O)c(S(=O)(=O)C3CC3)c2Cl)o1 [Compound 3-81]	A (Fresh weight inhibition rate≥80% to 100%)	A (Fresh weight inhibition rate≥80% to 100%)	A (Fresh weight inhibition rate≥80% to 100%)	A (Fresh weight inhibition rate≥80% to 100%)	A (Fresh weight inhibition rate≥80% to 100%)	E (Fresh weight inhibition rate<20%)	A (Fresh weight inhibition rate≥80% to 100%)	E (Fresh weight inhibition rate<20%)	A (Fresh weight inhibition rate≥80% to 100%)											
Cc1nnc(NC(=O)c2ccc(S(C)(=O)=O)c(S(=O)(=O)C3CCC3)c2Cl)o1 [Compound 3-86]	A (Fresh weight inhibition rate≥80% to 100%)	A (Fresh weight inhibition rate≥80% to 100%)	A (Fresh weight inhibition rate≥80% to 100%)	A (Fresh weight inhibition rate≥80% to 100%)	A (Fresh weight inhibition rate≥80% to 100%)	E (Fresh weight inhibition rate<20%)	A (Fresh weight inhibition rate≥80% to 100%)	E (Fresh weight inhibition rate<20%)	A (Fresh weight inhibition rate≥80% to 100%)											
